# Positions count from the first letter of the chain named. Names may count otherwise. “Also recorded” adds a separate entry of the source. Where two headings read alike, the source gives them in different places.
# B1: F404Y: chimeric modified caspase-9 polypeptide (protein)
# chain: VDGFGDVGALESLRGNADLAYILSMEPCGHCLIINNVNFCRESGLRTRTGSNIDCEKLRRRFSSLHFMVEVKGDLTAKKMVLALLELARQDHGALDCCVVVILSHGCQASHLQFPGAVYGTDGCPVSVEKIVNIFNGTSCPSLGGKPKLFFIQACGGEQKDHGFEVASTSPEDESPGSNPEPDATPFQEGLRTFDQLDAISSLPTPSDIFVSYSTFPGFVSWRDPKSGSWYVETLDDIFEQWAHSEDLQSLLLRVANAVSVKGIYKQMPGCYNFLRKKLFFKTSASRA
# B2: D330V: chimeric modified caspase-9 polypeptide (protein)
# chain: B1 chain with D198V, Y272F
# B3: F406L: chimeric modified caspase-9 polypeptide (protein)
# chain: B1 chain with Y272F, F274L
# B4: D330G: chimeric modified caspase-9 polypeptide (protein)
# chain: B1 chain with D198G, Y272F
# B5: F406T: chimeric modified caspase-9 polypeptide (protein)
# chain: B1 chain with Y272F, F274T
# B6: S144A: chimeric modified caspase-9 polypeptide (protein)
# chain: B1 chain with S12A, Y272F
# B7: D330S: chimeric modified caspase-9 polypeptide (protein)
# chain: B1 chain with D198S, Y272F
# B8: F404W: chimeric modified caspase-9 polypeptide (protein)
# chain: B1 chain with Y272W
# B9: D330N: chimeric modified caspase-9 polypeptide (protein)
# chain: B1 chain with D198N, Y272F
# Legend:
# [1] = test system: cells; experiment: AP1903 needed in vitro for effective signaling of cells; format: cell-based
# [2] = Phase I study of AP1903 in healthy volunteers; format: in vivo; conditions: male, human, plasma, intravenous, 0.4 mg/kg; reached within 15-30 min
# Description: FIG. 49(A-B) provides the results of a dose-escalation study in normal male volunteers. FIG. 49A is a line graph and 49B is a chart. Healthy volunteers were infused with the indicated doses of AP1903 and at various time points, serum levels of AP1903 were measured using HPLC analysis.
# In a previous Phase I study of AP1903, 24 healthy volunteers were treated with single doses of AP1903 for Injection at dose levels of 0.01, 0.05, 0.1, 0.5 and 1.0 mg/kg infused IV over 2 hours. […] Iuliucci J D, et al., J Clin Pharmacol. 41: 870-9, 2001.
# [3] = cited from earlier work
# [4] = test system: human CD3+CD19+ T cells; experiment: AP1903 dose-dependent elimination in vivo of iCasp9-transduced T cells in NSG mice; set-up: species or system immune deficient mice (NSG); conditions: i.p., wild-type iCasp9-transduced T cells, 24 hours
# Description: (§1) FIG. 65A-B: AP1903 dose-dependent elimination in vivo of T cells transduced with wild-type iCasp9. T cells were transduced with SFG-iCasp9-2A-ΔCD19 retrovirus and injected i.v. into immune deficient mice (NSG). After 24 hours, mice were injected i.p. with AP1903 (0-5 mg/kg). After an additional 24 hours, mice were sacrificed and lymphocytes from the spleen (65A) and peripheral blood (65B) were isolated and analyzed by flow cytometry for the frequency of human CD3^+CD19^+ T cells.
# as §1, with “66:” for “65A-B:”, “D330E” for “wild-type”, “SFG-iCasp9-D330E-2A-ΔCD19” for “SFG-iCasp9-2A-ΔCD19”, “(A)” for “(65A) and peripheral blood (65B)”
# [5] = test system: CD3+ΔCD19+ cells; experiment: CASPALLO phase 1 trial: AP1903 in patients with GvHD after iCasp9 T cell infusion; format: in vivo, human
# [6] = test system: Activated T cells; experiment: Control of proliferation of iCasp9-mutant-transduced T cells over 10 days; format: cell-based; conditions: AP1903 on days 0 and 4
# From the text: FIG. 63: iCasp9 mutants with lower sensitivity to AP1903 still control T cell proliferation in vitro. Activated T cells were transduced with retrovirus containing iCasp9 mutants and treated with AP1903 (arrow) on days 0 and 4 and subsequently enumerated for 10 days.
# [7] = test system: HEK293T/16 cells; experiment: Secreted alkaline phosphatase (SEAP) reporter-based surrogate killing assay; format: cell-based, human; conditions: AP1903-independent SEAP activity, relative to wild type
# Description: FIG. 45 provides an analysis of SEAP assays. To examine both basal signaling and AP1903 induced activity, […] early-passage HEK293T/16 cells were co-transfected with various amount of wildtype Caspase and 500 ng of an expression plasmid that uses an SRα promoter to drive SEAP, a marker for cell viability. […] of the mixture was seeded onto each well of a 96-well plate. 100-ul of AP1903 was added at least three hours post-transfection. After addition of AP1903 for at least 24 hours, 100-ul of supernatant was transferred to a 96-well plate and heat denatured at 68 ? C for 30 minutes to inactivate endogenous alkaline phosphatases. For the assay, 4-methylumbelliferyl phosphate substrate was hydrolyzed by SEAP to 4-methylumbelliferon, a metabolite that can be excited with 364 nm and detected with an emission filter of 448 nm. Since SEAP is used as a marker for cell viability, reduced SEAP reading corresponds with increased icaspase-9 activities.
# (50A) To examine both basal signaling and AP1903-induced CaspaClDe activity, 10^6 early-passage HEK293T/17 cells were co-transfected with 2 μg of inducible caspase variants along with 500 ng of an expression plasmid using an SRα promoter to transcriptionally regulate SEAP, a surrogate marker for cell viability. 200-μl of the transfection mixture containing plasmids, GeneJammer and HEK293T/17 cells in IMDM+10% FBS (without antibiotics) was seeded into each well of a 96-well plate. To induce caspase activity, 22 μl of serially diluted AP1903 was added 24 hours post-transfection. (50B) To examine basal and AP1903 induced signaling, 100 μl of supernatant was harvested 48 hours post-treatment and heat-denatured at 68° C. for 1 hour to inactivate endogenous alkaline phosphatases. For the assay, 4-methylumbelliferyl phosphate (4-MUP) substrate was hydrolyzed by SEAP to 4-methylumbelliferon, a metabolite with peak excitation at 364 nm and peak emission at 448 nm. Since SEAP is used as a surrogate marker for cell viability, a reduced SEAP reading corresponds to increased caspase-9 activity.
# Early passage HEK293T/16 cells (ATCC, Manassas, Va.) were maintained in IMDM, GlutaMAX™ (Life Technologies, Carlsbad, Calif.) supplemented with 10% FBS, 100 U/mL penicillin, and 100 […] until transfection in a humidified, 37° C., 5% CO2/95% air atmosphere. Cells in logarithmic-phase growth were transiently transfected with 800 ng to 2 μg of expression plasmid encoding iCasp9 mutants and 500 ng of an expression plasmid encoding SRα promoter driven SEAP per million cells in 15-mL conical tubes. […] GeneJammer® Transfection Reagent at a ratio of 3 μl per ug of plasmid DNA was used to transiently transfect HEK293T/16 cells in the absence of antibiotics. 100 μl or 2 mL of the transfection mixture was added to each well in 96-well or 6-well plate, respectively. For SEAP assays, log dilutions of AP1903 were added after a minimum 3-hour incubation post-transfection. For western blots, cells were incubated for 20 minutes with AP1903 (10 nM) before harvesting.
# Twenty-four to forty-eight hours after AP1903 treatment, ˜100 μl of supernatants were harvested into a 96-well plate and assayed for SEAP activity as described. Briefly, after 65° C. heat denaturation for 45 minutes to reduce background caused by endogenous (and serum-derived) alkaline phosphatases that are sensitive to heat, 5 μl of supernatants was added to 95 μl of PBS and added to 100 μl of substrate buffer, containing 1 μl of 100 mM 4-methylumbelliferyl phosphate (4-MUP; Sigma, St. Louis, Mo.) re-suspended in 2 M diethanolamine. Hydrolysis of 4-MUP by SEAP produces a fluorescent […] with excitation/emission (355/460 nm), which can be easily measured. Assays were performed in black opaque 96-well plates to minimize fluorescence leakage between wells (FIG. 45).
molecule,measurement,setting,value
"CC[C@H](C(=O)N1CCCC[C@H]1C(=O)O[C@H](CCc1ccc(OC)c(OC)c1)c1cccc(OCC(=O)NCCNC(=O)COc2cccc([C@@H](CCc3ccc(OC)c(OC)c3)OC(=O)[C@@H]3CCCCN3C(=O)[C@@H](CC)c3cc(OC)c(OC)c(OC)c3)c2)c1)c1cc(OC)c(OC)c(OC)c1 (relative stereo) [AP1903, 2-Piperidinecarboxylic acid, 1-[(2S)-1-oxo-2-(3,4,5-trimethoxyphenyl)butyl]-, 1,2-ethanediylbis[imino(2-oxo-2,1-ethanediyl)oxy-3,1-phenylene[(1R)-3-(3,4-dimethoxyphenyl)propylidene]] ester, [2S-[1(R*),2R*[S*[S*[1(R*),2R*]]]]]-(9Cl)]",amount needed in vitro for effective signaling of cells,[1],10 to 100 nM
same,Cmax,[2],100 to 1000 nM
same,safety and tolerability in healthy volunteers,"[3]; 0.01 mg/kg to 1.0 mg/kg dose range, listed as AP1903 for Injection",safe and well tolerated at all dose levels
same,relation of plasma levels to dose,[3]; 0.01-1.0 mg/kg,directly proportional to dose
same,plasma level as % of maximal concentration,[3]; 2 hours post-dose,~7%
same,plasma level as % of maximal concentration,[3]; 10 hours post-dose,~1%
same,well-tolerated doses,[3]; Phase I study,up to 1 mg/kg
same,dose sufficient to eliminate most modified T cells in vivo,[4],0.5 mg/kg
same,effect of a single dose on GvHD-causing and virus specific T cells,"[5]; human, in vivo","can reduce or eliminate the subpopulation of T cells causing GvHD, but can spare virus specific CTLs"
same,further reduction of CD3+ΔCD19+ cells,[5]; within 24 hours,additional log killing
B1,control of T cell proliferation and survival within 10 days (in words),[6],can kill target T cells indistinguishable from wildtype caspase-9 polypeptide or D330A within 10 days
same,basal activity / basal signaling (in words),[7],lower basal signaling; also recorded: lowered basal activity
B2,basal activity / basal signaling (in words),[7],less basal activity than wildtype caspase-9
B3,basal activity / basal signaling (in words),[7],lowered basal activity
B4,basal activity / basal signaling (in words),[7],less basal activity than wildtype caspase-9
B5,basal activity / basal signaling (in words),[7],lower basal signaling; also recorded: lowered basal activity
B6,basal activity / basal signaling (in words),[7],lower basal activity
B7,basal activity / basal signaling (in words),[7],less basal activity than wildtype caspase-9
B8,basal activity / basal signaling (in words),[7],lower basal signaling; also recorded: lowered basal activity
B9,basal activity / basal signaling (in words),[7],less basal activity than wildtype caspase-9
